Reference: the NIST ThermoML archive (doi:10.1016/j.jct.2015.07.028)
± gives the expanded uncertainty stated by the source.

Assay: molar heat capacity at saturation pressure
Conditions: Small (less than 1 g) adiabatic calorimetry

C=CC(C)(C)O [2-methyl-3-buten-2-ol]
molar heat capacity [J/K/mol]
Conditions	Crystal 1	Liquid
169.35 K	120.3 ± 0.7	–
169.77 K	120.8 ± 0.7	–
170 K	121 ± 0.7	–
171.3 K	122.5 ± 0.7	–
172.07 K	123.4 ± 0.7	–
173.24 K	124.6 ± 0.7	–
174.35 K	125.9 ± 0.7	–
175.17 K	126.8 ± 0.7	–
176.62 K	128.4 ± 0.7	–
177.09 K	128.8 ± 0.7	–
178.87 K	130.7 ± 0.7	–
179 K	130.8 ± 0.7	–
179.83 K	131.6 ± 0.7	–
180 K	131.9 ± 0.7	–
180.91 K	132.7 ± 0.7	–
181.12 K	133 ± 0.7	–
182.29 K	134.1 ± 0.7	–
182.8 K	134.7 ± 0.8	–
183.35 K	135.2 ± 0.8	–
184.61 K	136.5 ± 0.8	–
184.69 K	136.5 ± 0.8	–
185.57 K	137.5 ± 0.8	–
186.58 K	138.4 ± 0.8	–
186.93 K	138.7 ± 0.8	–
187.79 K	139.5 ± 0.8	–
188.45 K	140.2 ± 0.8	–
189.23 K	140.9 ± 0.8	–
189.99 K	141.7 ± 0.8	–
190 K	141.7 ± 0.8	–
190.32 K	141.9 ± 0.8	–
190.4 K	142 ± 0.8	–
191.52 K	143.1 ± 0.8	–
192.18 K	143.7 ± 0.8	–
192.46 K	144.1 ± 0.8	–
193.79 K	145.4 ± 0.8	–
194.04 K	145.5 ± 0.8	–
194.36 K	146 ± 0.8	–
194.42 K	146 ± 0.8	–
195.89 K	147.4 ± 0.8	–
196.05 K	147.7 ± 0.8	–
196.36 K	147.9 ± 0.8	–
196.53 K	148.2 ± 0.8	–
197.73 K	149.3 ± 0.8	–
198.3 K	150 ± 0.8	–
198.69 K	150.5 ± 0.8	–
199.56 K	151.3 ± 0.8	–
200 K	151.5 ± 0.8	–
200.23 K	152 ± 0.8	–
200.54 K	152.4 ± 0.8	–
200.84 K	152.9 ± 0.8	–
201.38 K	153.4 ± 0.8	–
202.15 K	154.2 ± 0.8	–
202.82 K	155.2 ± 0.9	–
202.98 K	155.5 ± 0.9	–
203.2 K	155.5 ± 0.9	–
204.05 K	156.6 ± 0.9	–
205 K	157.8 ± 0.9	–
205.1 K	158.3 ± 0.9	–
205.14 K	158.2 ± 0.9	–
205.95 K	159.3 ± 0.9	–
206.79 K	160.4 ± 0.9	–
207.21 K	161.1 ± 0.9	–
207.45 K	161.3 ± 0.9	–
207.83 K	162 ± 0.9	–
208.58 K	163 ± 0.9	–
209.3 K	164.2 ± 0.9	–
209.7 K	164.9 ± 0.9	–
209.73 K	164.8 ± 0.9	–
210 K	161.4 ± 0.8	–
210.51 K	166.1 ± 0.9	–
211.48 K	167.6 ± 0.9	–
211.99 K	168.4 ± 0.9	–
212.63 K	169.5 ± 0.9	–
213.77 K	171.3 ± 0.9	–
214.23 K	172.1 ± 0.9	–
214.72 K	172.9 ± 0.9	–
216.04 K	174.8 ± 0.9	–
216.46 K	175.1 ± 0.9	–
216.8 K	176 ± 1	–
218.3 K	178.6 ± 1	–
218.66 K	178.8 ± 1	–
218.86 K	179 ± 1	–
220 K	171.2 ± 0.9	–
220.53 K	182.2 ± 1	–
220.85 K	182.3 ± 1	–
220.9 K	182.4 ± 1	–
222.77 K	186.2 ± 1	–
222.93 K	186.4 ± 1	–
223.02 K	186.5 ± 1	–
224.94 K	191.2 ± 1	–
224.97 K	190.4 ± 1	–
225.17 K	191 ± 1	–
226.94 K	195.7 ± 1	–
227.09 K	196.6 ± 1.1	–
227.29 K	196 ± 1	–
228.88 K	201.4 ± 1.1	–
229.2 K	202.9 ± 1.1	–
229.37 K	202.7 ± 1.1	–
230.8 K	208.3 ± 1.1	–
231.27 K	210.9 ± 1.1	–
231.43 K	210.5 ± 1.1	–
232.67 K	217.3 ± 1.2	–
233.3 K	221.6 ± 1.2	–
233.43 K	221.3 ± 1.2	–
234.49 K	229.7 ± 1.2	–
235.25 K	237.1 ± 1.3	–
235.37 K	236.9 ± 1.3	–
236.24 K	248.1 ± 1.3	–
240 K	190.8 ± 1.1	–
245.03 K	195.7 ± 1.1	193.8 ± 1.1
245.63 K	–	195.7 ± 1
245.81 K	–	194.6 ± 1
